From patent US20250134917A1, “COMPOSITIONS AND METHODS OF REGENERATING HEART TISSUES WITH AMINOGLYCOSIDES” (The Board of Regents of The University of Texas System, priority 2022, published 2025) come the findings set out here.

Assay [1] concerns Meis1 transcriptional activity. Description: Meis1 luciferase transcriptional activity assay in NRVMs. Format: cell-based, rat. As to conditions: 10-500 nM, compared to control (PBS for neomycin, paromomycin; DMSO for rutin, hesperidin). The text has this: (§1) S1: HOXB13 DNA binding domain, S2: Meis1 DNA binding domain, and S3: Interacting interface between Meis1 and HOXB13 (PDB ID: 5EGO). […] Data are mean±s.e.m.; unpaired two-sided t-test. * P<0.05, ** P<0.01, *** P<0.001.

The subject of assay [2] is HOXB13 transcriptional activity. Description: HOXB13 luciferase transcriptional activity assay in NRVMs. Format: cell-based, rat. Particulars: 10-500 nM, compared to control (PBS for neomycin, paromomycin; DMSO for rutin, hesperidin).
Source text: as §1

A further assay concerns the target T1, HOXB13 (Mus musculus, UniProt P70321).
T1 construct: made in house; host or cells: E. coli Rosetta (DE3) pLysS
Briefly: Thermal shift assay on purified HOXB13 DBD. The assay is classed as binding. As for the experimental part: In another exemplary method, thermal shift analysis of aminoglycosides towards Meis1 and HOXB13 was performed. Initially, […] binding domains (DBDs) of Meis1 and HOXB13 were cloned, expressed, and purified to conduct the thermal shift assay (FIGS. 2A-2B). […] Protein Expression and Purification. mMeis1 and mHoxb13 were subcloned into pETDuet vector with noncleavable N-terminal 6×His tag and transformed into Rosetta (DE3) pLysS cells (Novagen). Target protein were expressed in cultures grown in autoinduction media at 18° C. overnight. The culture was harvested and sonicated in lysis buffer (20 mM Tris [pH=8.0], 1 M NaCl, 0.5 mM DTT, and supplemented with protease inhibitors). […] The eluate was concentrated and purified by gel filtration chromatography. The peak fractions were collected and concentrated to about . . . 0 mg/mL for crystallization screening.

The test system of assay [3] is mouse adult heart after myocardial infarction (MI). Briefly: Cardiac repair after myocardial infarction (LAD ligation) in adult mice. Format: in vivo. As for the experimental part:
In another exemplary method, the ability of the aminoglycosides on cardiac repair and heart regeneration was assessed in the mouse adult heart after following myocardial infarction (MI). MI was induced in adult mice by permanent ligation of the proximal left anterior descending coronary artery. This was followed by examining the expression of cell cycle inhibitors two weeks after MI (one week after drug(s) injection) by western blot analysis. […] Meanwhile, MI was induced to monitor the pharmacodynamics of the administered drug(s) to improve cardiac function and promote heart regeneration for 8-weeks (FIG. 5A). One week after injury, paromomycin and paromomycin-neomycin combo (200 mg/kg/day, i.p.) was administered while assessment of left ventricular ejection fraction (LVEF) by echocardiography was performed 1-week post-surgery, 1 week after drug(s) administration and every 2 weeks thereafter until 8 weeks post-surgery. Murine model of MI. Induction of adult anterior wall MI was performed as similar to the methods described in Nguyen et al., Nature (2020) 582, 271-276, the disclosure of which is incorporated herein in its entirety. In brief, three-month-old mice were subjected to MI by ligation of the proximal aspect of the LAD coronary artery. Mice were anaesthetized in an airtight chamber using 4% isoflurane, endotracheally intubated, and ventilated using a volume-control ventilator with 100% O2, supplemented with 2% vaporized isoflurane (Harvard Apparatus). Following lateral thoracotomy and pericardiectomy, the LAD coronary artery was identified along the anterior wall of the LV. Prolene sutures (6-0 non-absorbable) was used to ligate the LAD. Proper occlusion of the LAD artery was noted by three criteria: immediate blanching of the LV anterior wall myocardium below the ligature, echocardiographic assessment 7 days post-surgery showing an ejection fraction in the range of 45-65%, and histological analysis. Vicryl sutures (6-0 absorbable) were used to close the thoracic cavity. Drugs administrated one week after MI. Mice were subjected to echocardiography at serial time points and then euthanized at 3 months after ligation. Hearts were collected and processed for histology and immunohistochemistry. Fibrotic scar size was measured using MIQuant similar to the method described in Nascimento et al., PLOS One (2011) 6, e25045, the disclosure of which is incorporated herein in its entirety. Transthoracic echocardiography. Assessment of in vivo heart function on conscious, non-sedated mice was performed using a Vevo2100 micro-ultrasound system, M[…] probe (VisualSonics) at baseline, 1 week after injury, 1 week after drug administration, and 4, 8, 12 and 16 weeks after occlusion. Echocardiographic M-mode images were obtained from a parasternal short-axis view at the level of the papillary muscles. Left ventricular internal diameters at end diastole (LVIDd) and end systole (LVIDs) were measured from M-mode recordings. Six representative contraction cycles were selected for analysis, and average indexes (LVIDd, LVIDs and fractional shortening) were calculated for each mouse. All echocardiography measurements were performed in a blinded manner. Histology. Hearts were collected and fixed in 4% paraformaldehyde in PBS overnight at 4° C. and then processed for either paraffin or cryo embedding. […] Protein concentration was quantified using Pierce BCA protein assay kit (Pierce Biotechnology), with three biological replicates. […]

Assay [4] has as its system cardiomyocytes of neonatal heart. Briefly: Cardiomyocyte proliferation in neonatal CD-1 mice. The assay is classed as in vivo, mouse. Particulars: 300 mg/kg, i.p from p1 till p14, compared with controls. As for the experimental part: Paromomycin-neomycin was administered to neonatal CD-1 mice at 300 mg/kg, i.p from p1 till p14. Hearts were collected for histological analysis (FIG. 4A).
Immunofluorescence staining. Heart cryosections were equilibrated with antigen retrieval buffer with 1 mM EDTA or epitope retrieval buffer (IHC World). Samples were permeabilized and blocked with 0.3% Triton X-100 and 10% serum from the host animal of secondary antibodies in PBS for 20 minutes at room temperature. Then, samples were incubated overnight at 4° C. with the primary antibodies. After three washes with PBS, samples were incubated for 1 hour at room temperature with corresponding fluorescence secondary antibodies conjugated to Alexa Fluor 488 or 555 (Invitrogen) at 1:400. The slides were mounted in Vectashield Antifade Mounting Medium (Vector Laboratories). Slides were viewed under Nikon fluorescence or Zeiss LSM 510 confocal microscopes. Primary antibodies used: phospho histone H3 Ser10 (EMD Millipore, 06-570; 1:100), aurora B kinase (Sigma, A5102; 1:25) to analyse cell cycle re-entry; troponin T, cardiac isoform Ab-1, clone 13-11 (Thermo Scientific, MS-295-P1; 1:200), sarcomeric α-actinin (Abcam, ab68167; 1:200) to identify cardiomyocytes. DAPI or Hoechst was used for nuclear staining. Images were obtained using a Nikon Eclipse Ni or Nikon A1 laser scanning confocal microscopes.

Assay [5] has as its system cardiomyocytes in the adult heart. Description: Cardiomyocyte proliferation in adult mice with no injury stimuli. Format: in vivo, mouse. As for the experimental part:
In another exemplary method, cardiomyocyte proliferation in mice was assessed in the presence of paromomycin and paromomycin-neomycin. Based on the data resulting from the in vitro screening coupled and luciferase transcription activity assays detailed in the exemplary methods herein, paromomycin was initially selected to study its capacity to prolong cardiomyocytes proliferation in adult mice with no injury stimuli. The effect of paromomycin (Paro) (200 mg/kg/day, i.p.) and paromomycin-neomycin (Paro/Neo) combo (300 mg/kg/day, i.p.) was assessed after 2 weeks of injection on cell proliferation indices, cytokinesis, cardiomyocyte cell size, isolated cardiac cell count, and nucleation on the isolated cardiomyocytes in the adult heart (FIG. 3A, FIG. 4F). […] Animals. Mice were housed in a 12:12 h light: dark cycle in a temperature-controlled room with free access to water and food. Littermate controls were used whenever possible. Both male and female mice were used on age-matched and gender-matched mice. No statistical methods were used to predetermine sample size. All surgeries and echocardiographic studies were carried out blinded to the genotype of the mice during the experiments and outcome assessments. CD1 mice (Charles River Laboratories) were used for drug-tested studies. Drug administration. Tamoxifen (Sigma) was prepared by dissolving in sesame oil (Sigma) to a concentration of 10 mg ml^-1. For the MADM clonal analysis, 14 consecutive injections of tamoxifen were administered, and mice were euthanized 2 weeks after the last injection. For injection of Paromomycin and Neomycin, mice were administered twice daily. Mice were euthanized at the same time of day to limit circadian variability. Immunofluorescence staining. Heart cryosections were equilibrated with antigen retrieval buffer with 1 mM EDTA or epitope retrieval buffer (IHC World). Samples were permeabilized and blocked with 0.3% Triton X-100 and 10% serum from the host animal of secondary antibodies in PBS for 20 minutes at room temperature. Then, samples were incubated overnight at 4° C. with the primary antibodies. After three washes with PBS, samples were incubated for 1 hour at room temperature with corresponding fluorescence secondary antibodies conjugated to Alexa Fluor 488 or 555 (Invitrogen) at 1:400. The slides were mounted in Vectashield Antifade Mounting Medium (Vector Laboratories). Slides were viewed under Nikon fluorescence or Zeiss LSM 510 confocal microscopes. Primary antibodies used: phospho histone […] (EMD Millipore, 06-570; 1:100), aurora B kinase (Sigma, A5102; 1:25) to analyse cell cycle re-entry; troponin T, cardiac isoform Ab-1, clone 13-11 (Thermo Scientific, MS-295-P1; 1:200), sarcomeric α-actinin (Abcam, ab68167; 1:200) to identify cardiomyocytes. DAPI or Hoechst was used for nuclear staining. Images were obtained using a Nikon Eclipse Ni or Nikon A1 laser scanning confocal microscopes. WGA staining and cardiomyocyte size quantification. WGA staining and quantification was performed as previously described. In brief, the slides were incubated with WGA conjugated to Alexa Fluor 488 ([…], Life Technologies) for 1 hour at room temperature following washing with PBS. To quantify the cross-sectional cell size, three to five independent hearts per group with three different views and positions, each from left and right ventricles, and septum were captured at 40× magnification. ImageJ was used to quantify the size of cardiomyocytes that were round and contained a nucleus. At least 500 cells per sample were quantified. Cardiomyocyte isolation. Adult hearts were freshly collected and fixed in 4% paraformaldehyde at 4° C. overnight. The hearts were minced to smaller pieces and subsequently incubated with collagenase D (2.4 mg ml^-1, Roche) and B (1.8 mg ml^-1, Roche) for 12 h at 37° C. using an end-over-end shaker. The supernatants were collected via 160-μm nylon mesh filter, and the procedure was repeated until no more cardiomyocytes were dissociated from the tissue. […]

Setting [6] is: two weeks after MI (one week after drug(s) injection).
The mark [7] stands for this setting: adult CD-1 mice, i.p., 2 weeks, paromomycin 200 mg/kg, paromomycin-neomycin 300 mg/kg, Anti-Cnx43/DAPI, compared with controls.
Where [8] appears, read: adult mice, i.p., 2 weeks, Paro 200 mg/kg/day, Paro/Neo combo 300 mg/kg/day, compared to control.
Setting [9] is: adult mice, i.p., 2 weeks, Paro 200 mg/kg/day, Paro/Neo combo 300 mg/kg/day, compared to control-treated mice.

T1 sequence (P70321 218-277 limits assumed): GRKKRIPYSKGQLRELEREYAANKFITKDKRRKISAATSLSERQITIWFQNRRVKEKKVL

Consider `COc1ccc([C@@H]2CC(=O)c3c(O)cc(O[C@@H]4O[C@H](CO[C@@H]5O[C@@H](C)[C@H](O)[C@@H](O)[C@H]5O)[C@@H](O)[C@H](O)[C@H]4O)cc3O2)cc1O` [Hesperidin, hesperidin], for which the “luciferase transcriptional activity for Meis1” value in assay [1] is “poor inhibitory profile”. In addition, the “luciferase transcriptional activity for HOXB13” value in assay [2] was “poor inhibitory profile”.
Take neomycin: the “luciferase transcriptional activity for Meis1” value in assay [1] was “significant downregulation”. Moreover, in assay [2], the “luciferase transcriptional activity for HOXB13” value is reported as “significant downregulation”. In addition, the “change in the melting temperature of HOXB13” value on HOXB13 is reported as “noticeable change”.
In the case of `NC[C@@H]1O[C@H](O[C@H]2[C@@H](O)[C@H](O[C@@H]3[C@@H](O)[C@H](N)C[C@H](N)[C@H]3O[C@H]3O[C@H](CO)[C@@H](O)[C@H](O)[C@H]3N)O[C@@H]2CO)[C@H](N)[C@@H](O)[C@@H]1O` [Paromomycin, paromomycin], in assay [3] (8 weeks post-surgery, drug i.p. from one week after injury, compared to control-treated mice), the “left ventricular ejection fraction (LVEF) by echocardiography” value is “maintain the LVEF”. Also, in assay [3] (MI mouse model, Paromomycin 200 mg/kg, i.p., Paromomycin-Neomycin 300 mg/kg, 8 weeks, compared to controls), the “wet to dry lung ratio” value is recorded as “significant decrease”. The “fibrotic scar (size)” value in assay [3] (histological analysis, 8 weeks post-MI, compared to control-treated hearts) is reported as “trending decline”. For the same compound, in assay [3] (setting [6]), the “p15/16 proteins (cell cycle inhibitor), western blot” value is “decrease” and the “p21 protein (cell cycle inhibitor), western blot” value was “decrease”. For the same compound, in assay [1], the “luciferase transcriptional activity for Meis1” value is recorded as “significant downregulation”. In addition, in assay [4], the “cardiomyocyte cytokinesis marker (AurkB and anti-cTnT co-immunostaining)” value is “significant increase”; the “cardiomyocyte mitosis marker (anti-pH3 and anti-cTnT co-immunostaining)” value was “significant increase”. For the same compound, the “RFP+ and GFP+ single-labelled daughter cardiomyocytes” value in assay [5] (Mosaic Analysis with Double Markers (MADM) mice, lineage tracing, compared to control-treated mice) is “significant increased”. In assay [5] (setting [7]), the “bi- and multi-nucleation of isolated cardiomyocytes” value is recorded as “significant decrease”; the “mono-nucleation of isolated cardiomyocytes” value is recorded as “significant increase”. Further, in assay [5] (setting [8]), the “cardiomyocytes cell size via wheat germ agglutinin (WGA) staining” value is “significant reduction” and the “cardiomyocytes undergoing cytokinesis via Aurkb+ staining” value is on record as “significant increase”. The “number of cardiomyocytes following dissociation of the heart by collagenase digestion” value in assay [5] (adult mice, i.p., 2 weeks, Paro 200 mg/kg/day, Paro/Neo combo 300 mg/kg/day, compared to control-treated hearts) is “significantly higher number”. Further, in assay [5] (setting [9]), the “heart weight (HW)/body weight (BW) ratio” value is given as “no significant difference” and the “pH3+ cardiomyocytes (mitosis marker)” value is on record as “significant increase”. In assay [2], the “luciferase transcriptional activity for HOXB13” value is given as “significant downregulation”.
